Source: patent US9707267B2, “Beta-turn peptidomimetic cyclic compounds for treating dry eye” (Mimetogen Pharmaceuticals, Inc., priority 2008, dated 2017)
Marks after values point to notes of the source that are not given here.

Assays:
[1] = tested on: Scopolamine Induced Rat Dry Eye Model; test: Scopolamine induced rat dry eye model, tear break-up time (Example 5); format: in vivo; conditions: for Tear Break-Up Time: ± SD
Description: (§1) Dry eye was induced using scopolamine hydrobromide (Sigma-Aldrich, St. Louis, Mo.), which was continuously and systemically delivered to the animals via an osmotic pump (2ML4 Alzet®; CedarLane, Burlington, Ontario) filled with scopolamine and implanted subcutaneously in the mid dorsal area between the scapulae. Scopolamine was delivered for a twenty-eight day period at 12.5 mg/day, which translated to 30.0±1.5 mg/kg via osmotic pump.
(§2) Treatments for G2-G6 continued daily for seventeen days (up to an including day twenty-one). Thereafter, treatments were terminated but the study continued for another week. During treatment, each animal was anesthetized in an isoflurane chamber. Once asleep, each animal received a 5 μL topical instillation of test article into the lower conjunctival sac of both eyes using a calibrated micropipette. If a clinical endpoint was also being tested, the test article was topically instilled at the end of the testing.
Tear break-up times were tested on day 13 (after 8 daily treatments), day 21 (after 16 daily treatments), and day 28 (after treatment was stopped for 7 days). TBUT was evaluated by instillation of 10 μL sodium fluorescein solution (0.2% in sterile saline) in the upper conjunctival sac of the anaesthetized animal. The lids were blinked manually to distribute the fluorescein with the tear film. Under the cobalt blue light of a portable slit lamp ophthalmoscope (Reichert Ophthalmic Instruments, Depew, N.Y.), the eye was held open and the time until one or more black streaks appeared in the precorneal tear film was recorded. For each eye, a minimum of triplicate readings were made with fresh fluorescein solution.

[2] = tested on: Scopolamine Induced Rat Dry Eye Model; test: Scopolamine induced rat dry eye model, tear fluorescein clearance (Example 5); format: in vivo; conditions: ± SD
Description: as §1, §2
[…] Tear fluorescein clearance was evaluated as described for humans (Alfonso, A. A., et al., “Correlation of Tear Fluorescein Clearance and Schirmer Test Scores with Ocular Irritation Symptoms,” Ophthalmology 106:803-810 (1999), which is incorporated herein by reference in its entirety) and modified for rats (Chen, W., et al., “Keratoconjunctivitis Sicca Modifies Epithelial Stem Cell Proliferation Kinetics in Conjunctiva,” Cornea 26:1101-1106 (2007), which is incorporated herein by reference in its entirety). Animals were lightly sedated with Isoflurane and two microliters of 1% sodium fluorescein (Sigma-Aldrich, St. Louis, Mo.) solution (in sterile saline) was applied to the lower conjunctival sac. The animals awoke within two minutes. After fifteen minutes, the animals were re-sedated and the fluorescein-stained tear fluid was collected with a phenol-red cotton thread (as described for Schirmer testing). The threads were immediately sealed in 1.5 mL polypropylene Eppendorf tubes shielded from light until fluorophotometric analysis. The volume of the collected tear fluid was determined by the length of cotton wetting in mm. After, 100 μl of phosphate-buffered saline (PBS) was added, the tubes were spun at 12,000 rpm for five minutes and the fluid transferred to a 96-well polystyrene microtiter plate (Corning Life Sciences #2592, Fisher Scientific, Nepean, Ontario). A standard well was prepared on each plate, which consisted of a phenol-red thread placed in 100 μl PBS containing 2 μl of 1% sodium fluorescein solution. Fluorescence was measured immediately using a fluorescence microplate reader (FLUOstar OPTIMA, BMG Labtech, Germany) after setting the gain to the standard well. The concentration of fluorescein in tears was calculated from the fluorescence units divided by the mm of cotton wetting (Fu/mm).

In the case of “NGF: nerve growth factor (recombinant human), positive control”, the “Tear Break-Up Time” value ([1]; 0.00053% topical 1× daily Days 5-21, Day 13) is reported as 5.2 ± 1.6 s, the “Tear Break-Up Time” value ([1]; 0.00053% topical 1× daily Days 5-21, Day 21) is reported as 4.7 ± 0.8 s and the “Tear Break-Up Time” value ([1]; 0.00053% topical 1× daily Days 5-21, Day 28 (7 days after treatment stopped)) is reported as 4.2 ± 0.8 s. For the same molecule, the “Tear Fluorescein Clearance” value ([2]; 0.00053% group, Day 2, before treatment start (day 5)) was 933 ± 824 FU/mm, the “Tear Fluorescein Clearance” value ([2]; 0.00053% group, Day −1, baseline, before treatment start (day 5)) was 483 ± 562 FU/mm and the “Tear Fluorescein Clearance” value ([2]; 0.00053% topical 1× daily Days 5-21, Day 5 (test before first instillation)) was 804 ± 432 FU/mm. For the same molecule, the “Tear Fluorescein Clearance” value ([2]; 0.00053% topical 1× daily Days 5-21, Day 7) was 1080 ± 572 FU/mm, the “Tear Fluorescein Clearance” value ([2]; 0.00053% topical 1× daily Days 5-21, Day 14) was 1097 ± 1112 FU/mm and the “Tear Fluorescein Clearance” value ([2]; 0.00053% topical 1× daily Days 5-21, Day 20) was 861 ± 414 FU/mm.
With `NCCCC[C@@H]1NC(=O)[C@H](CCC(=O)O)NC(=O)c2cc([N+](=O)[O-])ccc2OCCC(C(=O)NCC(=O)O)NC1=O` (stereo partly drawn) [Compound D3] the “Tear Break-Up Time” value ([1]; 0.4% topical 1× daily Days 5-21, Day 13) was 4.5 ± 1.7^b seconds, the “Tear Break-Up Time” value ([1]; 0.4% topical 1× daily Days 5-21, Day 21) was 4.4 ± 1.7 s and the “Tear Break-Up Time” value ([1]; 0.4% topical 1× daily Days 5-21, Day 28 (7 days after treatment stopped)) was 4.3 ± 0.8 s. The “changes in TBUT at Day 28 as compared to Day 13 (in words)” value ([1]; 1% dose vs untreated and saline control groups) was “statistically significantly improved TBUT”, the “Tear Break-Up Time” value ([1]; 1.0% topical 1× daily Days 5-21, Day 21) was 5.1 ± 1.9 s and the “Tear Break-Up Time” value ([1]; 1.0% topical 1× daily Days 5-21, Day 28 (7 days after treatment stopped)) was 6.4 ± 1.2 s. The “Tear Break-Up Time” value ([1]; 2.5% topical 1× daily Days 5-21, Day 13) was 7.0 ± 2.3 s, the “Tear Break-Up Time” value ([1]; 2.5% topical 1× daily Days 5-21, Day 21) was 5.8 ± 2.1 s and the “Tear Break-Up Time” value ([1]; 2.5% topical 1× daily Days 5-21, Day 28 (7 days after treatment stopped)) was 5.0 ± 1.3 s. For the same molecule, the “Tear Fluorescein Clearance” value ([2]; 0.4% group, Day 2, before treatment start (day 5)) was 516 ± 305 FU/mm, the “Tear Fluorescein Clearance” value ([2]; 0.4% group, Day −1, baseline, before treatment start (day 5)) was 288 ± 247 FU/mm and the “Tear Fluorescein Clearance” value ([2]; 0.4% topical 1× daily Days 5-21, Day 5 (test before first instillation)) was 969 ± 732 FU/mm. The “Tear Fluorescein Clearance” value ([2]; 0.4% topical 1× daily Days 5-21, Day 7) was 296 ± 156 FU/mm, the “Tear Fluorescein Clearance” value ([2]; 0.4% topical 1× daily Days 5-21, Day 14) was 635 ± 599 FU/mm and the “Tear Fluorescein Clearance” value ([2]; 0.4% topical 1× daily Days 5-21, Day 20) was 667 ± 508 FU/mm. For the same molecule, the “Tear Fluorescein Clearance” value ([2]; 1.0% group, Day 2, before treatment start (day 5)) was 880 ± 673 FU/mm, the “Tear Fluorescein Clearance” value ([2]; 1.0% group, Day −1, baseline, before treatment start (day 5)) was 575 ± 682 FU/mm and the “Tear Fluorescein Clearance” value ([2]; 1.0% topical 1× daily Days 5-21, Day 5 (test before first instillation)) was 550 ± 369 FU/mm. For the same molecule, the “Tear Fluorescein Clearance” value ([2]; 1.0% topical 1× daily Days 5-21, Day 7) was 1098 ± 639 FU/mm, the “Tear Fluorescein Clearance” value ([2]; 1.0% topical 1× daily Days 5-21, Day 14) was 686 ± 306 FU/mm and the “Tear Fluorescein Clearance” value ([2]; 1.0% topical 1× daily Days 5-21, Day 20) was 1067 ± 773 FU/mm. The “Tear Fluorescein Clearance” value ([2]; 2.5% group, Day 2, before treatment start (day 5)) was 777 ± 592 FU/mm, the “Tear Fluorescein Clearance” value ([2]; 2.5% group, Day −1, baseline, before treatment start (day 5)) was 428 ± 312 FU/mm and the “Tear Fluorescein Clearance” value ([2]; 2.5% topical 1× daily Days 5-21, Day 5 (test before first instillation)) was 671 ± 344 FU/mm. The “Tear Fluorescein Clearance” value ([2]; 2.5% topical 1× daily Days 5-21, Day 7) was 561 ± 231 FU/mm, the “Tear Fluorescein Clearance” value ([2]; 2.5% topical 1× daily Days 5-21, Day 14) was 791 ± 235 FU/mm and the “Tear Fluorescein Clearance” value ([2]; 2.5% topical 1× daily Days 5-21, Day 20) was 673 ± 170 FU/mm.
